These are literature values, as cited in patent publication US12544371B2, “Methods and compositions for treating acute lung injury and acute respiratory distress syndrome” (CalciMedica, Inc., priority 2020, dated 2026).

For series [1] the following is noted: mice, cited from earlier work.
For series [2] the following is noted: cited from earlier work.
The conditions of series [3]: Gandhirajan et al. 2013; cited from earlier work.

SMILES strings stand for the structures. Entries after “also recorded” stand apart in the source; their conditions may differ.

In the case of `Cc1nnsc1C(=O)Nc1ccc(-n2nc(C(F)(F)F)cc2C(F)(F)F)cc1` [BTP2, N-(4-(3,5-bis(trifluoromethyl)-1H-pyrazol-1-yl)phenyl)-4-methyl-1,2,3-thiadiazole-5-carboxamide], the “endothelial cell Ca2+ flux” value in series [1] (delivered 2 hours after systemic endotoxin) is “striking reduction”. The “measures of lung injury (endotoxin / lipopolysaccharide-induced)” value in series [1] is recorded as “sharp decrease; also recorded: attenuate”. Also, in series [2] (rat ventilator-induced lung injury), the “endothelial lung dysfunction and lung inflammation” value is listed as “suppress”. The ventilator-induced lung injury entry in series [2] (rats) is recorded as “attenuate”. In series [3], the “infiltration of neutrophils into inflamed lung tissue” value was “reduced”, the “inflammatory cytokines associated with lung inflammation” value is recorded as “down-regulated” and the “vascular permeability in lungs” value is reported as “decreased”.
